pIC50, pKi: −log10 of the molar value.
Columns and labels:
Cytochrome P450 2C9 = Cytochrome P450 2C9 (Homo sapiens, UniProt P11712)
Androgen receptor [1] = target: T1, Androgen receptor (Rattus norvegicus, UniProt P15207)
T1 sequence (P15207 whole entry): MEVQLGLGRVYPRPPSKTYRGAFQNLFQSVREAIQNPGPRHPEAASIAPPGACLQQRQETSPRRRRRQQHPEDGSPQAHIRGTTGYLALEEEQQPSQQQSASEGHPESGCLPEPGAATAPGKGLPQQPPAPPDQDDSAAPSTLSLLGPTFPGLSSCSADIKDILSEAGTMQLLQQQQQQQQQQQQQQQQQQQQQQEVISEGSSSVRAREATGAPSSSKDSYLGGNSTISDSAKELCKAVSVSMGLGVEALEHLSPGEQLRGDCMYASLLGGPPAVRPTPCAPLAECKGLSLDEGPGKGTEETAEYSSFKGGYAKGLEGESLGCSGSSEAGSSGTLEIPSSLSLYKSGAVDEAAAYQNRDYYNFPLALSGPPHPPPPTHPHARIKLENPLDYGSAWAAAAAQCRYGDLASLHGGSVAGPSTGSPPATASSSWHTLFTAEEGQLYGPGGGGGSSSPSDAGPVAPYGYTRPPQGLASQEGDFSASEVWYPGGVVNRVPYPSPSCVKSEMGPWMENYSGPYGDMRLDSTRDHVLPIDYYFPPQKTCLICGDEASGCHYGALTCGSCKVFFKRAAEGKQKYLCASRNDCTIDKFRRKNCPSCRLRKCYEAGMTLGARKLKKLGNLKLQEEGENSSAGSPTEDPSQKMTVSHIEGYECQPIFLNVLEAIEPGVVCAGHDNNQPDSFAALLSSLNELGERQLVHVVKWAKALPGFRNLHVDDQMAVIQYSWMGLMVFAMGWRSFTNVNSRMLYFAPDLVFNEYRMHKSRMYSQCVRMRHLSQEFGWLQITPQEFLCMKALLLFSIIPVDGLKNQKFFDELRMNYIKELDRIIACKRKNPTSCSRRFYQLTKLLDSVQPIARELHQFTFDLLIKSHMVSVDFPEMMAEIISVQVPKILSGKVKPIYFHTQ

Cytochrome P450 2C19 = Cytochrome P450 2C19 (Homo sapiens, UniProt P33261)
Cytochrome P450 2D6 = Cytochrome P450 2D6 (Homo sapiens, UniProt P10635)
Glucocorticoid receptor = target: T2, Glucocorticoid receptor (Homo sapiens, UniProt P04150); test: biochemical
T2 sequence (P04150 whole entry): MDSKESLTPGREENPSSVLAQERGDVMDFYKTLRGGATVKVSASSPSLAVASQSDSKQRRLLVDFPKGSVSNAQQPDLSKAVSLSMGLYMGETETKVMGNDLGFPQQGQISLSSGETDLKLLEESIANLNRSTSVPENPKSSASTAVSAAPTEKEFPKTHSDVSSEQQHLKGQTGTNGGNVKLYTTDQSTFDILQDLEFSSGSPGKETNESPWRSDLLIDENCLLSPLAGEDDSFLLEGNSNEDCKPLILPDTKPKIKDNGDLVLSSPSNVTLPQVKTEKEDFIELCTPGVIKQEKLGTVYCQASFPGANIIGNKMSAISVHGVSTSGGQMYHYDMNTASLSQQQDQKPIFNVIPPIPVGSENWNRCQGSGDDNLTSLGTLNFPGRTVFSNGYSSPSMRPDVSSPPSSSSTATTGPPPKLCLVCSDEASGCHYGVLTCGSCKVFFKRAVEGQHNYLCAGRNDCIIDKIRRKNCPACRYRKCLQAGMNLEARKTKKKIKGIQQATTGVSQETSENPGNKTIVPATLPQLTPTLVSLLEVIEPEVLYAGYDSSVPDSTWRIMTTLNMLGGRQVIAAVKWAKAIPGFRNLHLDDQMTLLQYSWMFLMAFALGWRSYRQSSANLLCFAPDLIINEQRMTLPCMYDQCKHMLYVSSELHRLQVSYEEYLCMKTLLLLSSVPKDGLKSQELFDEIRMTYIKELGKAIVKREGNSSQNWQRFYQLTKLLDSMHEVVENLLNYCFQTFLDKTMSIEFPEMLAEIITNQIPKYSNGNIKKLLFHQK

Androgen receptor [2] = target: T1, Androgen receptor; remark: listed apart in the source
Cytochrome P450 1A2 = target: T3, Cytochrome P450 1A2 (Homo sapiens, UniProt P05177)
T3 sequence (P05177 whole entry): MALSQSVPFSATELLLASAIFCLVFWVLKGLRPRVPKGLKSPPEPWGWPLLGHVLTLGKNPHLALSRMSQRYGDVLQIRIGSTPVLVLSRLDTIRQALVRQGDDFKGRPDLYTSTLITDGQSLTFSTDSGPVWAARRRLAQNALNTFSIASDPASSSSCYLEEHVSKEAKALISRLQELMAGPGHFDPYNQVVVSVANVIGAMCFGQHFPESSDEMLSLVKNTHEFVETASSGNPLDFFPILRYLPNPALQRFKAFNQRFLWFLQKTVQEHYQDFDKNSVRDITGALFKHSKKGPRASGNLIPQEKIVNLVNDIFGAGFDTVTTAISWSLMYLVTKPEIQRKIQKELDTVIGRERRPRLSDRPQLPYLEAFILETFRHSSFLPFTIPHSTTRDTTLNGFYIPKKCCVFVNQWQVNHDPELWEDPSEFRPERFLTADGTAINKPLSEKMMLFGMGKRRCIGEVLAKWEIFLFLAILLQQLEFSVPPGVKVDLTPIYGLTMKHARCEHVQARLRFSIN

[3] = target: Voltage-gated inwardly rectifying potassium channel KCNH2 (Homo sapiens, UniProt Q12809)
Also: in other assays of this panel Not Active means under 50% inhibition at 10 µM.

Cytochrome P450 2C19, sequence (P33261 whole entry): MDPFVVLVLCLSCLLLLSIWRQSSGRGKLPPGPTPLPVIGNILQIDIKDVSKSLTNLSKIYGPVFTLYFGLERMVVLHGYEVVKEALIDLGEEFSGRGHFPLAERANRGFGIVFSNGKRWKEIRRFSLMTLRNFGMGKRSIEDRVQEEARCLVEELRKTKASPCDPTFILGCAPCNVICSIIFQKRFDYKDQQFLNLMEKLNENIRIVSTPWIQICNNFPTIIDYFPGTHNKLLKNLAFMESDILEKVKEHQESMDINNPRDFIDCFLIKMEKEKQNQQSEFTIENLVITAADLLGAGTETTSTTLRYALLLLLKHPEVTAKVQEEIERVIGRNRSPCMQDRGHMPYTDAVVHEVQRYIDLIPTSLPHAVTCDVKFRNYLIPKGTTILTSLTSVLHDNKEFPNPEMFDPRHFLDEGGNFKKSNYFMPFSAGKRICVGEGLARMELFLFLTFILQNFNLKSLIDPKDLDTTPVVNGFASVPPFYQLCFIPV
Voltage-gated inwardly rectifying potassium channel KCNH2, sequence (Q12809 whole entry): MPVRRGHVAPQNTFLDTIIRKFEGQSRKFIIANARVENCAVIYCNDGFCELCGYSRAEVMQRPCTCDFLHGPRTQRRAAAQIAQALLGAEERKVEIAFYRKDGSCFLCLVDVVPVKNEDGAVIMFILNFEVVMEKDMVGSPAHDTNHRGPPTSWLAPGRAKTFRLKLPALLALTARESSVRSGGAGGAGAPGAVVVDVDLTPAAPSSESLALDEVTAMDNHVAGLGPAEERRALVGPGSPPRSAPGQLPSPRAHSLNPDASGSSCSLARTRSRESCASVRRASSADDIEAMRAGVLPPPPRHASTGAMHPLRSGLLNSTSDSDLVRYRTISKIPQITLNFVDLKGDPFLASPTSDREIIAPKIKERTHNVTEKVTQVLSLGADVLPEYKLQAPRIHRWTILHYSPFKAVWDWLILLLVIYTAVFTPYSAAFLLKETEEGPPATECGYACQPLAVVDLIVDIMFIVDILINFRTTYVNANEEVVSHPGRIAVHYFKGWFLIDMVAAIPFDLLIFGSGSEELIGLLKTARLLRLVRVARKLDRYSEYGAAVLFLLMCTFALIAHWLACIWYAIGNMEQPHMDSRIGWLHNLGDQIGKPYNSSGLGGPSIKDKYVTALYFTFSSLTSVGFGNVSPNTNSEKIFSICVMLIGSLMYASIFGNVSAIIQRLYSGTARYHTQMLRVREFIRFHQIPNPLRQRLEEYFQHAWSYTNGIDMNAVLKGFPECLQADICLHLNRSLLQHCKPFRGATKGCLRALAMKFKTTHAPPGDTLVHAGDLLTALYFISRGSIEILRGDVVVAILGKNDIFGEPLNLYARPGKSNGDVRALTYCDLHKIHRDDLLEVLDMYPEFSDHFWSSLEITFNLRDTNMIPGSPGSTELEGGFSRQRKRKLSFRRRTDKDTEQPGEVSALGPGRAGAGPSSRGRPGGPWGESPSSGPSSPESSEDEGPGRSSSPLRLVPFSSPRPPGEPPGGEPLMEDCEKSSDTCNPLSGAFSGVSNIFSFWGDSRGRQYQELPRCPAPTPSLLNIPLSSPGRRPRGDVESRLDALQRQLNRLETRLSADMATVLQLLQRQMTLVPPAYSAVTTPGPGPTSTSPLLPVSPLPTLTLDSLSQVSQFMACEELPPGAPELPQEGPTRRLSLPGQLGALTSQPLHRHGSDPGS
Cytochrome P450 2C9, sequence (P11712 whole entry): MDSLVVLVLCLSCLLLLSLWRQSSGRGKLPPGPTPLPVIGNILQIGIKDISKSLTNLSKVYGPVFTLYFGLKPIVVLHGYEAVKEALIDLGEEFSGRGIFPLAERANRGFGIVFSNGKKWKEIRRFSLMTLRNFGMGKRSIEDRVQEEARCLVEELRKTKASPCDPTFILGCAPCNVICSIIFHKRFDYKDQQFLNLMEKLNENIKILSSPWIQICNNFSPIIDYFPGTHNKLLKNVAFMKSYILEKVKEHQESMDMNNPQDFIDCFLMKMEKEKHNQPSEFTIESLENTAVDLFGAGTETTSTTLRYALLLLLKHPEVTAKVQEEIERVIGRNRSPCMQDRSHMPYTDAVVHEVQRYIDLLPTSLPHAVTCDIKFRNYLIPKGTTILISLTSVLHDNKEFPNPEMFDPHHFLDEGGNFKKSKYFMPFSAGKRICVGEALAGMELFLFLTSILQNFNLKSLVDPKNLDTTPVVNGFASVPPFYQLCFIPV
Cytochrome P450 2D6, sequence (P10635 whole entry): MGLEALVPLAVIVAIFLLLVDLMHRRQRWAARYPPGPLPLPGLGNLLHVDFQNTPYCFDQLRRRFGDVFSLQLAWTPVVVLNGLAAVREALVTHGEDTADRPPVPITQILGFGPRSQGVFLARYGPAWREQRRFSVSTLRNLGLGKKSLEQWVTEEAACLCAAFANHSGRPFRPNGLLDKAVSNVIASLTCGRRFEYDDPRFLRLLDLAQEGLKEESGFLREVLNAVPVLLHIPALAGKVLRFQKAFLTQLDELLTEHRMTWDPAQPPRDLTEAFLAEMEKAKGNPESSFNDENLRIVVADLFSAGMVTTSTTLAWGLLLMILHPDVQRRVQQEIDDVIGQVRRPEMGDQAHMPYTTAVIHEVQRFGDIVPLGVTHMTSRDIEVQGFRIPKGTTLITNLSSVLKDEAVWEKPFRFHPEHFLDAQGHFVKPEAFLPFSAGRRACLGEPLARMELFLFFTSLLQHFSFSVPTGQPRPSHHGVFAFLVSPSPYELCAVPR

O=C(c1ccccc1C(F)(F)F)N1CCC(Cc2ccccc2)CC1
pIC50 (Cytochrome P450 2C9): 5.70
IC50 (Androgen receptor [1]): Not Active
pIC50 (Cytochrome P450 2C19): 6.40

Nc1ccc2c3c(cccc13)C(=O)NC2=O
IC50 (Androgen receptor [1]): Not Active

O=c1cnn([C@@H]2O[C@H](CO)[C@@H](O)[C@H]2O)c(=O)[nH]1 [6-AZAURIDINE]
IC50 (Androgen receptor [1]): Not Active

CCC1(CCC(C)C)C(=O)NC(=O)NC1=O [AMOBARBITAL]
IC50 (Androgen receptor [1]): Not Active

CC(C(=O)O)c1ccc2oc(-c3ccc(Cl)cc3)nc2c1 (configuration not stated) [BENOXAPROFEN]
IC50 (Androgen receptor [1]): Not Active

COc1ccc2cc3[n+](cc2c1OC)CCc1cc2c(cc1-3)OCO2.[Cl-] [BERBERINE CHLORIDE]
pIC50 (Cytochrome P450 2D6): 5.35

CC(=O)Oc1ccc(C(c2ccc(OC(C)=O)cc2)c2ccccn2)cc1 [BISACODYL]
pIC50 (Cytochrome P450 2C9): 5.00
IC50 (Androgen receptor [1]): Not Active

Cc1cc2c(OCC(CNC(C)(C)C)OC(=O)c3ccccc3)cccc2[nH]1 (configuration not stated) [BOPINDOLOL]
pIC50 (Cytochrome P450 2D6): 5.26

CN(C)[C@@H]1C(O)=C(C(N)=O)C(=O)[C@@]2(O)C(O)=C3C(=O)c4c(O)ccc(Cl)c4[C@@](C)(O)[C@H]3C[C@@H]12 [CHLORTETRACYCLINE]
IC50 (Androgen receptor [1]): Not Active

CCC(=O)O[C@]1(C(=O)CCl)[C@@H](C)C[C@H]2[C@@H]3CCC4=CC(=O)C=C[C@]4(C)[C@@]3(F)[C@@H](O)C[C@@]21C [CLOBETASOL PROPIONATE]
pIC50 (Glucocorticoid receptor): 8.84
pKi (Glucocorticoid receptor): 9.18
pIC50 (Androgen receptor [2]): 5.42
pKi (Androgen receptor [2]): 5.60

O=C1CN=C(c2ccccc2Cl)c2cc([N+](=O)[O-])ccc2N1 [CLONAZEPAM]
IC50 (Androgen receptor [1]): Not Active

C[C@@H]1C[C@H]2[C@@H]3CCC4=CC(=O)C=C[C@]4(C)[C@@]3(F)[C@@H](O)C[C@]2(C)[C@H]1C(=O)CO [DESOXIMETASONE]
pIC50 (Glucocorticoid receptor): 8.59
pKi (Glucocorticoid receptor): 8.93

C[C@@H]1CC[C@@]2(OC1)O[C@H]1[C@@H](O)[C@H]3[C@@H]4CC[C@H]5C[C@@H](O[C@@H]6O[C@H](CO)[C@H](O[C@@H]7O[C@H](CO)C(O)[C@H](O[C@@H]8OC[C@@H](O)[C@H](O)[C@H]8O)[C@H]7O[C@@H]7O[C@H](CO)[C@H](O)[C@H](O[C@@H]8O[C@H](CO)[C@@H](O)[C@H](O)[C@H]8O)[C@H]7O)[C@H](O)[C@H]6O)[C@H](O)C[C@]5(C)[C@H]4CC[C@]3(C)[C@H]1[C@@H]2C (some centres not stated) [DIGITONIN]
IC50 (Androgen receptor [1]): Not Active

OC(CCCN1CCCCC1)(c1ccccc1)c1ccccc1 [DIPHENIDOL]
pIC50 (Cytochrome P450 2D6): 6.49
IC50 (Androgen receptor [1]): Not Active

C[C@@H](CO)NC(=O)[C@@H]1C=C2c3cccc4[nH]cc(c34)C[C@H]2N(C)C1 [ERGONOVINE]
IC50 (Androgen receptor [1]): Not Active

COc1ccc2c3c1O[C@H]1C[C@@H](O)C=C[C@@]31CCN(C)C2 [GALANTAMINE]
IC50 (Androgen receptor [1]): Not Active

CC(C)=CCC/C(C)=C/CO [GERANIOL]
IC50 (Androgen receptor [1]): Not Active

Oc1c(Cl)cc(Cl)c(Cl)c1Cc1c(O)c(Cl)cc(Cl)c1Cl [HEXACHLOROPHENE]
pIC50 (Cytochrome P450 1A2): 5.88
pIC50 (Androgen receptor [2]): 5.30
pKi (Androgen receptor [2]): 5.48
pIC50 (Cytochrome P450 2C19): 5.91

CC(=O)[C@@]1(O)CC[C@H]2[C@@H]3CCC4=CC(=O)CC[C@]4(C)[C@H]3CC[C@@]21C [HYDROXYPROGESTERONE]
pIC50 (Glucocorticoid receptor): 7.29
pKi (Glucocorticoid receptor): 7.64

COC1=C(OC)C(=O)C(CCCCCCCCCCO)=C(C)C1=O [IDEBENONE]
pIC50 (Cytochrome P450 2C9): 5.30
pIC50 (Cytochrome P450 2D6): 5.52
IC50 (Androgen receptor [1]): Not Active
pIC50 (Cytochrome P450 2C19): 6.10

CC(C)NNC(=O)c1ccncc1 [IPRONIAZID]
IC50 (Androgen receptor [1]): Not Active

Cc1c(OCC(F)(F)F)ccnc1C[S+]([O-])c1nc2ccccc2[nH]1 (configuration not stated) [LANSOPRAZOLE]
pIC50 (Cytochrome P450 2D6): 5.27
pIC50 (Cytochrome P450 2C19): 6.47

O=c1cc(N2CCOCC2)oc2c(-c3ccccc3)cccc12 [LY-294002]
IC50 (Androgen receptor [1]): Not Active
pIC50 (Cytochrome P450 1A2): 6.00

CCN(CC)CCOCCC1=CCC2CC1C2(C)C (configuration not stated) [MYRTECAINE]
IC50 (Androgen receptor [1]): Not Active
pIC50 [3]: 5.23
pKi [3]: 5.32

O=C(N/N=C/c1ccc([N+](=O)[O-])o1)c1cc([N+](=O)[O-])cc([N+](=O)[O-])c1O [NIFURSOL]
pIC50 (Cytochrome P450 2C9): 5.15
pIC50 (Cytochrome P450 2C19): 5.30

C#CC1(O)CC[C@H]2[C@@H]3CCC4=CC(=O)CC[C@@H]4[C@H]3CC[C@@]21CC (some centres not stated) [NORGESTREL]
pIC50 (Glucocorticoid receptor): 6.83
pKi (Glucocorticoid receptor): 7.17

CC(=O)O[C@H]1C(=O)[C@@]2(C)[C@H]([C@H](OC(=O)c3ccccc3)[C@]3(O)C[C@H](OC(=O)[C@H](O)[C@@H](NC(=O)c4ccccc4)c4ccccc4)C(C)=C1C3(C)C)[C@]1(OC(C)=O)CO[C@@H]1C[C@@H]2O [PACLITAXEL]
IC50 (Androgen receptor [1]): Not Active

C[n+]1ccc(-c2cc[n+](C)cc2)cc1.[Cl-].[Cl-] [PARAQUAT DICHLORIDE]
IC50 (Androgen receptor [1]): Not Active

CC(C)NCC(O)COc1cccc2[nH]ccc12 (configuration not stated) [PINDOLOL]
IC50 (Androgen receptor [1]): Not Active

COc1cc2nc(N3CCN(C(=O)c4ccco4)CC3)nc(N)c2cc1OC [PRAZOSIN]
pIC50 [3]: 4.61
pKi [3]: 4.70

CC(=O)[C@H]1[C@H](C#N)C[C@H]2[C@@H]3CC=C4C[C@@H](O)CC[C@]4(C)[C@H]3CC[C@@]21C [PREGNENOLONE CARBONITRILE]
pIC50 (Glucocorticoid receptor): 4.86
pKi (Glucocorticoid receptor): 5.20

CCCN(CCC)S(=O)(=O)c1ccc(C(=O)O)cc1 [PROBENECID]
IC50 (Androgen receptor [1]): Not Active

CC(C)c1cccc(C(C)C)c1O [PROPOFOL]
IC50 (Androgen receptor [1]): Not Active

C[C@@H]1O[C@@H](O[C@@H]2C=C3CC[C@@H]4[C@H](CC[C@]5(C)[C@@H](c6ccc(=O)oc6)CC[C@]45O)[C@@]3(C)CC2)[C@H](O)[C@H](O)[C@H]1O [PROSCILLARIDIN]
IC50 (Androgen receptor [1]): Not Active

AURANOFIN
IC50 (Androgen receptor [1]): Not Active
Ki (Androgen receptor [1]): Not Active

GADOPENTETATE DIMEGLUMINE
IC50 (Androgen receptor [1]): Not Active
Ki (Androgen receptor [1]): Not Active

GENTAMICIN
IC50 (Androgen receptor [1]): Not Active
Ki (Androgen receptor [1]): Not Active

GRAMICIDIN
IC50 (Androgen receptor [1]): Not Active
Ki (Androgen receptor [1]): Not Active

NYSTATIN
IC50 (Androgen receptor [1]): Not Active
Ki (Androgen receptor [1]): Not Active

— ChEMBL document CHEMBL1909046, “DrugMatrix in vitro pharmacology data”
